Assay results published in article PMC3517300 (Journal of neurochemistry, 2012).

Tests used:
[1] = target: human DAT (LLC-PK-hDAT cells) (Homo sapiens, UniProt Q01959); experiment: AMPH-induced [^3H]DA efflux in LLC-PK-hDAT cells; format: cell-based
DAT = details: raft-enriched fractions vs whole cells; ref Foster et al. 2008; cited from earlier work
[2] = target: human dopamine transporter (DAT WT) (Homo sapiens, UniProt Q01959); experiment: AMPH-induced DA efflux by RDEV, HEK 293-hDAT; format: cell-based; details: for effect on corrected efflux Vmax / effect on Km and Vmax of AMPH-induced DA efflux (RDEV): WT; for effect on corrected efflux Vmax: repletion with 200 µM sterol after 5.0 mM mβCD, or 25 µg/ml nystatin; for effect on Km and Vmax of AMPH-induced DA efflux (RDEV): 5.0 mM mβCD or 25 µg/ml nystatin, 10 µM AMPH
[3] = system: hDAT surface expression in HEK-293 cells; experiment: Surface biotinylation and immunoblot of DAT; format: cell-based, human; details: treatment with mβCD, nystatin, or repletion with cholesterol or desmosterol
[4] = system: DAT in lipid rafts of HEK-293 hDAT cells; experiment: Sucrose density fractionation, DAT association with lipid rafts; format: cell-based, human; details: 1% Brij; depletion/chelation or repletion of mβCD depleted cells
[5] = system: cholesterol-depleted HuH7 hepatoma cells or hippocampal membranes; details: within 1 hr; ref Vainio et al. 2006; Singh et al. 2009; cited from earlier work
[6] = system: unesterified cholesterol in HEK 293-hDAT cells; experiment: Cholesterol quantification; format: cell-based, human; details: for reduction of cholesterol content compared with untreated cells: 30 min, 37°C
W84L DAT mutant [7] = target: T1, W84L DAT mutant (Homo sapiens, UniProt Q01959, W84L); experiment: DA uptake by RDEV, W84L hDAT-HEK 293 cells; format: cell-based; details: 2.5 mM mβCD or 25 µg/ml nystatin
T1 sequence (Q01959 1-620 W84L): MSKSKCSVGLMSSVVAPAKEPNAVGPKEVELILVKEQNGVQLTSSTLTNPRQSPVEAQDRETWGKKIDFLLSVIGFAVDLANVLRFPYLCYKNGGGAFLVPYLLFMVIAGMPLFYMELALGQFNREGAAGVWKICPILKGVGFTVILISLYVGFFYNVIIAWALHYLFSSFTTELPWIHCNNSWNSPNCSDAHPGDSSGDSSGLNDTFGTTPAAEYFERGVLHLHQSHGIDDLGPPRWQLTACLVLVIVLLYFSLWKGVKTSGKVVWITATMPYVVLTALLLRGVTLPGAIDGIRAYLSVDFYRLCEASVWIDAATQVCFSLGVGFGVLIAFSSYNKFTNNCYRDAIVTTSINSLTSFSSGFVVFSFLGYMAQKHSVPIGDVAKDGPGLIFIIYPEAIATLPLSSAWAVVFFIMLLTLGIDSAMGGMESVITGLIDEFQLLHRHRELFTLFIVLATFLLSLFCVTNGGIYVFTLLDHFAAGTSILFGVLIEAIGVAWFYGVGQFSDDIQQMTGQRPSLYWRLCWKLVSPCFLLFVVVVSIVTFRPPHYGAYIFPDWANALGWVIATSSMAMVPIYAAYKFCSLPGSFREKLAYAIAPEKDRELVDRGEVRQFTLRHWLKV

W84L DAT mutant [8] = target: T1, W84L DAT mutant; experiment: AMPH-induced DA efflux by RDEV, W84L hDAT-HEK 293 cells; format: cell-based; details: for effect on AMPH-induced DA efflux Km, Vmax (RDEV): 2.5 mM mβCD or 25 µg/ml nystatin, 10 µM AMPH

human DAT (LLC-PK-hDAT cells), sequence (Q01959 whole entry): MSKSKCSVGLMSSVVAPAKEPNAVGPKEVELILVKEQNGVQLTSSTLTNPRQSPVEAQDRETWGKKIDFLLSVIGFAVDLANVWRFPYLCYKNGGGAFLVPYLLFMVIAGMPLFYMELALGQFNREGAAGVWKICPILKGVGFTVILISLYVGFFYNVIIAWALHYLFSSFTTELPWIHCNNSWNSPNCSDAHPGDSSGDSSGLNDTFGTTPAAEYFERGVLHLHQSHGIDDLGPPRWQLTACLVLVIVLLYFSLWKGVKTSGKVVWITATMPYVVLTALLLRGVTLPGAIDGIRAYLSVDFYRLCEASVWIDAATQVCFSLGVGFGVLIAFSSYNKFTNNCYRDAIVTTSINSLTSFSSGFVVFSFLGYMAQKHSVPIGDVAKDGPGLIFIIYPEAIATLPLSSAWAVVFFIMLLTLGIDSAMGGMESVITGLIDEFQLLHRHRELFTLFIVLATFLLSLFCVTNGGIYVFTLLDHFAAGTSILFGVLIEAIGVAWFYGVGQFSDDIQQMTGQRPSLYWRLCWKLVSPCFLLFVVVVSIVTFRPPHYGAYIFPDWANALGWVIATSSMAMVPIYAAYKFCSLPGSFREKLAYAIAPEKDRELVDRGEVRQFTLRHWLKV
human dopamine transporter (DAT WT), sequence (Q01959 whole entry): as above

Compound	effect on corrected efflux Vmax [2]	changes in levels of DAT (total lysates and biotinylated surface fraction) [3]	DAT distribution across sucrose gradient fractions (raft association) [4]	effect on Km and Vmax of AMPH-induced DA efflux (RDEV) [2]	effect on DA uptake Vmax and Km (RDEV) (W84L DAT mutant [7])	effect on AMPH-induced DA efflux Km, Vmax (RDEV) (W84L DAT mutant [8])	further results
C[C@H](N)Cc1ccccc1 [AMPH, dextroamphetamine]	–	–	–	–	–	–	[^3H]DA efflux over basal efflux ([1]; 10 µM AMPH, control cells, 5 min, 25°C): ~ 144%
NCCc1ccc(O)c(O)c1 [DA, dopamine]	–	–	–	–	–	–	IC50 of DA competing for [^3H]CFT binding, rafts vs whole cells (DAT): two-fold higher
CC(C)CCC[C@@H](C)[C@H]1CC[C@H]2[C@@H]3CC=C4C[C@@H](O)CC[C@]4(C)[C@H]3CC[C@]12C [cholesterol]	indistinguishable from control values	no significant changes	restored DAT association with low buoyant density fractions	–	–	–	–
CC(C)=CCC[C@@H](C)[C@H]1CC[C@H]2[C@@H]3CC=C4C[C@@H](O)CC[C@]4(C)[C@H]3CC[C@]12C [desmosterol]	indistinguishable from control values	no significant changes	inefficient at restoring rafts	–	–	–	increase in cholesterol after replenishment with desmosterol [5]: ≤ 10%
C[C@@H]1[C@H](O)[C@@H](C)/C=C/C=C/CC/C=C/C=C/C=C/C=C/C(O[C@H]2O[C@H](C)[C@@H](O)[C@H](N)[C@@H]2O)CC2O[C@](O)(CC(O)C(O)CCC(O)CC(O)CC(O)CC(=O)O[C@H]1C)CC(O)C2C(=O)O (some centres unmarked) [nystatin]	no significant change	no significant changes	significant shift of DAT out of raft fractions 3–4 into denser fractions 7 and up	no effect	did not significantly change Vmax or Km	did not affect	change of overall content of cholesterol ([6]; 25 µg/ml): did not change; AMPH-induced [^3H]DA efflux over basal levels ([1]; nystatin treated cells, 10 µM AMPH): 150%
methyl-β-cyclodextrin [mβCD]	–	no significant changes	significant shift of DAT out of raft fractions 3–4 into denser fractions 7 and up	large reduction	enhanced uptake Vmax without altering Km	partial rescue of efflux Vmax	reduction of cholesterol content compared with untreated cells ([6]; 2.5 mM): 39%; reduction of cholesterol content compared with untreated cells ([6]; 5.0 mM): 63%; reduction in reverse transport (corrected efflux Vmax) ([2]; 5.0 mM mβCD vs control, 37°C): ~ 40%; effect on Vmax ratio (incorporating the uptake correction) (W84L DAT mutant [8]; 2.5 mM mβCD): rescued to that of DAT WT control; AMPH-induced [^3H]DA efflux over basal levels ([1]; 2.5 mM mβCD, 10 µM AMPH): 122%; AMPH-induced [^3H]DA efflux over basal levels ([1]; 5.0 mM mβCD, 10 µM AMPH): 115%; loss in efflux function ([1]; 2.5 and 5.0 mM mβCD): ~ 20%
